Where two headings read alike, the source gives them in different places.
Assays:
[1] = Acute toxicity in the mouse (LD 50, Litchfield and Wilcoxon); details: in vivo
Procedure: The acute toxicity of the derivatives of the invention were studied by intraperitoneal administration (I.P.) on the mouse (10 animals, 5 males and 5 females per dose) and calculation of the lethal dose 50 (LD 50) in accordance with the method of Litchfield and Wilcoxon (J. Pharmacol. 96, 99-113 (1949)).
In certain cases (derivatives of Examples 4, 6, 9), the LD 50 was also calculated after oral administration (P.O.) of the derivatives.

[2] = system: anoxic ventricular fibrillation; assay: Lawson test (cardiac antifibrillatory power, chloroform); type: in vivo; details: ip; mouse, intraperitoneal, 10 minutes before chloroform
Procedure: The Lawson test is a test for the study of the cardiac antifibrillatory power of the derivatives. The mice (20 per group) received an intraperitoneal injection of the derivative 10 minutes before being placed in a chloroform-saturated atmosphere. Upon respiratory arrest, the thorax was opened (5 to 10 seconds) and whether or not the heart was in ventricular fibrillation was checked. The efficacy dose 50 (ED 50) of the derivative being studied is the dose which protects half the mice against anoxic ventricular fibrillation.

anesthetized dog [3] = assay: Hemodynamic (cardiovascular) tolerance in the anesthetized dog; type: in vivo; details: i.v.; for Cardiac Flow, percentage of variation / Cardiac Frequency, percentage of variation / Systolic Arterial Pressure, percentage of variation / Total Peripheral Resistances, percentage of variation / dp/dt/p Left Ventricular, percentage of variation: vs control period
Procedure: The hemodynamic tolerance of the derivatives of the invention was studied on dogs anesthesized with sodium pentobarbital. Endocavitary pressures were measured by means of catheters connected to Statham sensors while external recording of the electrocardiogram (E.C.G.) provided the measurement of cardiac frequency. Cardiac flow was measured by means of an electromagnetic sensor placed on the beginning of the aorta. The total peripheral resistances R were calculated from the value of the average aortic pressure (P) and the cardiac flow (Q) in accordance with the formula R=P/Q.
After measurement of the parameters during a control period, the derivatives were injected intravenously in cumulative doses (30 minute interval between doses). The variations of the parameters in relation to the control period were measured within 20 and 30 minutes after each injection and are expressed as a percentage of variation in relation to the control.
Table 2 summarizes the variations in hemodynamic parameters observed between the first and last injections.

[4] = Lawson test (cardiac antifibrillatory power, chloroform); details: in vivo, ip; mouse, intraperitoneal; read-out: Maximum Dose Tolerated
[5] = system: ventricular arrhythmias with adrenalin; assay: Test with adrenalin after experimental infarct; type: in vivo, dog
From the text: (§1) Narcisse et al, Ann. Pharma. Fr., 37, 325-330 (1979), in the rat by the aconitine intoxication test of S. Witchitz et al, Coeur Med. Int., X(2), 281-286, (1971) and in the dog by the Harris test described in Circulation, 1, 1318, (1950) and by the test with adrenalin after experimental infarct of I. J. Steffe et al, J. Pharmacol. Exp. Ther., 214, 50-57 (1980).
2 to 5 days after an experimental infarct, the effects of discontinuous injections (in intravenous bolus of […] of basic adrenalin) of adrenalin were observed on the electrocardioagram of the conscious dog.
During a first phase (control) of the experiment, three successive injections of adrenalin were given and, in the 2 minutes following each injection, the frequency of the ventricular extrasystoles was measured. In this manner, by increasing the dose of adrenalin as necessary, it was possible to determine the dose which caused the appearance of ventricular extrasystoles at a higher frequency than or equal to half the total number of ventricular systoles.
After injection of the derivative to be tested, the same dose of adrenalin was reinjected after 5 minutes, then 30 minutes, 60 minutes, 90 minutes, etc., and its effects were compared to those observed during the control period.
The results therein are expressed as a percentage of extrasystoles (on the total number of systoles) measured during the 2 minutes following the injection of adrenalin before and after the administration of the derivative to be tested.

[6] = system: ventricular arrhythmias and death induced by the aconitine; assay: Aconitine intoxication test in the anesthetized rat; type: in vivo; details: i.v., vs untreated control
From the text: as §1
The anesthetized rat was intoxicated with an intravenous perfusion of aconitine while its electrocardiogram (ECG) was permanently recorded. During the perfusion at constant rate, the time necessary for the appearance of ventricular arrhythmias, successive extrasystoles (ESV), then stable ventricular tachycardium (TV) and the time within which the animal died were measured.
The animals were divided into a control group (untreated) and treated groups (different doses). The results are expressed as a percentage of prolonging the time of appearance of the arrhythmias and of death of the treated groups in reaction to the control group.
The results obtained are shown in Table 4 below and express the percentage of prolongation of the time of appearance of ventricular arrhythmias (ventricular extrasystoles and ventricular tachycardiums), and of the death, induced by the aconitine after an intravenous injection (I.V.) of several derivatives of the invention, in relation to a group of untreated control animals.

anesthetized dog [7] = assay: Electrophysiological studies on the anesthetized dog; type: in vivo; details: i.v.
Procedure: This study was carried out on dogs anesthetized with pentobarbital, with a closed thorax, by means of bipolar catheter-electrodes introduced into the cardiac cavities by transcutaneous venous and arterial means. The surface electrocardiogram (standard derivation D2) is recorded permanently.
By means of a programmable JANSEN (R) stimulator, the following parameters may be measured:
spontaneous cardiac frequency (FC);
sinus recuperation time (SRTc) after auricular stimulation imposed at 160 b/mn for 1 mn;
intracardiac conduction times (auriculohisien at a constant frequency, His-Purkinje, intraventricular);
the effective and functional refractory periods measured at an imposed constant frequency, with the extrastimulus method.
During the electrophysiological study, the derivatives were injected intravenously for 2 minutes for each dose and at 30 minute intervals between each dose. The doses are expressed as a cumulative value and as a base term.
The measurement of the various parameters was carried out before the injection of the first dose (control period) and from 10 to 28 minutes after the injection of each dose of the substance. The results are expressed as a percentage of variation in relation to the control period.

[8] = ip, intraperitoneal, read-out: LD 50 I.P.
[9] = 10 mg/kg, control period 40% of ESV
[10] = doses 0.5 to 5 mg/kg, 3 evaluations
[11] = cumulative doses 0.1 to 3 mg/kg
[12] = 4.3 mg/kg, control period 94% of ESV
[13] = doses 0.1 to 1.4 mg/kg, 1 evaluation
[14] = cumulative doses 0.1 to 1 mg/kg
[15] = 1.3 mg/kg, control period 85% of ESV
[16] = cumulative doses 0.3 to 10 mg/kg
[17] = 4 mg/kg, control period 71% of ESV

COc1ccc(CCC(=O)NC2(C)C3CC4CC2CN(C3)C4(C)C)cc1 (stereo not shown) [Example 5, N-[3-(p-methoxy-phenyl)propionyl]-4-amino-4,8,8-trimethyl-1-azaadamantane]
LD50 [1, 8]: 250 mg/kg
ED50 [2]: 61 mg/kg
Cardiac frequency, in words (anesthetized dog [3]; anesthetized dog): the frequency does not change
Cardiac Flow, percentage of variation (anesthetized dog [3]; cumulative doses 1 to 10 mg/kg): +4 to -8%
Cardiac Frequency, percentage of variation (anesthetized dog [3]; cumulative doses 1 to 10 mg/kg): 0%
Systolic Arterial Pressure, percentage of variation (anesthetized dog [3]; cumulative doses 1 to 10 mg/kg): 0 to +3%
Total Peripheral Resistances, percentage of variation (anesthetized dog [3]; cumulative doses 1 to 10 mg/kg): -6 to +11%
dp/dt/p Left Ventricular, percentage of variation (anesthetized dog [3]; cumulative doses 1 to 10 mg/kg): +2 to -15%
MTD [4]: 200 mg/kg
ESV Percentage at 5 min [5, 9]: 9%
ESV Percentage at 30 min [5, 9]: 14%
ESV Percentage at 60 min [5, 9]: 16%
Prolongation of time of appearance of ventricular extrasystoles (ESV) ([6]; 5 mg/kg): +41%
Prolongation of time of appearance of ventricular tachycardium (TV) ([6]; 5 mg/kg): +20%
Prolongation of time to death ([6]; 5 mg/kg): +21%
Prolongation of time of appearance of ventricular extrasystoles (ESV) ([6]; 10 mg/kg): +51%
Prolongation of time of appearance of ventricular tachycardium (TV) ([6]; 10 mg/kg): +48%
Prolongation of time to death ([6]; 10 mg/kg): +36%
Prolongation of time of appearance of ventricular extrasystoles (ESV) ([6]; 20 mg/kg): +65%
Prolongation of time of appearance of ventricular tachycardium (TV) ([6]; 20 mg/kg): +54%
Prolongation of time to death ([6]; 20 mg/kg): +50%

CC1(NC(=O)c2ccc(N)cc2)C2CC3CC1CN(C2)C3(C)C (stereo not shown) [Example 3, N-(p-aminobenzoyl)-4-amino-4,8,8-trimethyl-1-azaadamantane]
LD50 [1, 8]: 95 mg/kg
ED50 [2]: 37 mg/kg
F.C. (cardiac frequency), variation (anesthetized dog [7]; [10]): 0 to -24%
HV (time of His-Purkinje conduction), variation (anesthetized dog [7]; [10]): +13 to +98%
PREA (effective auricular refractory period), variation (anesthetized dog [7]; [10]): +2 to +50%
PREV (effective ventricular refractory period), variation (anesthetized dog [7]; [10]): 0 to +20%
QRS (time of intraventricular conduction), variation (anesthetized dog [7]; [10]): +8 to +39%
St-H (time of auriculohisien conduction), variation (anesthetized dog [7]; [10]): +2 to +76%
Cardiac Flow, percentage of variation (anesthetized dog [3]; [11]): +7 to -32%
Cardiac Frequency, percentage of variation (anesthetized dog [3]; [11]): 0 to -14%
Systolic Arterial Pressure, percentage of variation (anesthetized dog [3]; [11]): -3 to -33%
Total Peripheral Resistances, percentage of variation (anesthetized dog [3]; [11]): -10 to +7%
dp/dt/p Left Ventricular, percentage of variation (anesthetized dog [3]; [11]): +14 to -50%
MTD [4]: 50 mg/kg
ESV Percentage at 5 min [5, 12]: 63%
ESV Percentage at 30 min [5, 12]: 77%
ESV Percentage at 60 min [5, 12]: 90%

CC1(NC(=O)CC(c2ccccc2)c2ccccc2)C2CC3CC1CN(C2)C3(C)C (single isomer, unassigned) [Example 6, N-(3,3-diphenylpropionyl)-4-amino-4,8,8-trimethyl-1-azaadamantane]
LD50 [1, 8]: 51 mg/kg
LD50 ([1]; oral, read-out: LD 50 P.O.): 380 mg/kg
F.C. (cardiac frequency), variation (anesthetized dog [7]; [13]): 0 to +32%
HV (time of His-Purkinje conduction), variation (anesthetized dog [7]; [13]): 0 to +92%
PREA (effective auricular refractory period), variation (anesthetized dog [7]; [13]): +18 to +50%
PREV (effective ventricular refractory period), variation (anesthetized dog [7]; [13]): +10 to +20%
QRS (time of intraventricular conduction), variation (anesthetized dog [7]; [13]): 0 to +50%
St-H (time of auriculohisien conduction), variation (anesthetized dog [7]; [13]): 0 to +25%
Cardiac frequency, maximum variation (anesthetized dog [3]; anesthetized dog): +10%
Cardiac Flow, percentage of variation (anesthetized dog [3]; [14]): -3 to -18%
Cardiac Frequency, percentage of variation (anesthetized dog [3]; [14]): -3 to +10%
Systolic Arterial Pressure, percentage of variation (anesthetized dog [3]; [14]): -8 to -16%
Total Peripheral Resistances, percentage of variation (anesthetized dog [3]; [14]): 0%
dp/dt/p Left Ventricular, percentage of variation (anesthetized dog [3]; [14]): -6 to -13%
ESV Percentage at 5 min [5, 15]: 29%
ESV Percentage at 30 min [5, 15]: 17%
ESV Percentage at 60 min [5, 15]: 17%
Prolongation of time of appearance of ventricular extrasystoles (ESV) ([6]; 1 mg/kg): +52%
Prolongation of time of appearance of ventricular tachycardium (TV) ([6]; 1 mg/kg): +93%
Prolongation of time to death ([6]; 1 mg/kg): +69%
Prolongation of time of appearance of ventricular extrasystoles (ESV) ([6]; 2 mg/kg): +67%
Prolongation of time of appearance of ventricular tachycardium (TV) ([6]; 2 mg/kg): +139%
Prolongation of time to death ([6]; 2 mg/kg): +97%

COc1ccc(C(=O)NC2(C)C3CC4CC2CN(C3)C4(C)C)cc1 (stereo not shown) [Example 8, N-(p-methoxybenzoyl)-4-amino 4,8,8-trimethyl-1-azaadamantane]
LD50 [1, 8]: 250 mg/kg
ED50 [2]: 49 mg/kg
Cardiac frequency, maximum variation (anesthetized dog [3]; anesthetized dog): -15%
Cardiac Flow, percentage of variation (anesthetized dog [3]; [16]): -7 to -22%
Cardiac Frequency, percentage of variation (anesthetized dog [3]; [16]): -7 to -15%
Systolic Arterial Pressure, percentage of variation (anesthetized dog [3]; [16]): -6 to -21%
Total Peripheral Resistances, percentage of variation (anesthetized dog [3]; [16]): 0%
dp/dt/p Left Ventricular, percentage of variation (anesthetized dog [3]; [16]): 0 to -28%
MTD [4]: 100 mg/kg
ESV Percentage at 5 min [5, 17]: 35%
ESV Percentage at 30 min [5, 17]: 36%
ESV Percentage at 60 min [5, 17]: 53%
Prolongation of time of appearance of ventricular extrasystoles (ESV) ([6]; 5 mg/kg): +45%
Prolongation of time of appearance of ventricular tachycardium (TV) ([6]; 5 mg/kg): +43%
Prolongation of time to death ([6]; 5 mg/kg): +46%
Prolongation of time of appearance of ventricular extrasystoles (ESV) ([6]; 10 mg/kg): +71%
Prolongation of time of appearance of ventricular tachycardium (TV) ([6]; 10 mg/kg): +84%
Prolongation of time to death ([6]; 10 mg/kg): +215%
Prolongation of time of appearance of ventricular extrasystoles (ESV) ([6]; 20 mg/kg): +98%
Prolongation of time of appearance of ventricular tachycardium (TV) ([6]; 20 mg/kg): +107%
Prolongation of time to death ([6]; 20 mg/kg): +112%

CC1(NC(=O)c2ccccc2)C2CC3CC1CN(C2)C3(C)C (stereo not shown) [Example 7, 4-N-benzoylamino-4,8,8-trimethyl-1-azaadamantane]
LD50 [1, 8]: 230 mg/kg
ED50 [2]: 76 mg/kg
MTD [4]: 150 mg/kg
Prolongation of time of appearance of ventricular extrasystoles (ESV) ([6]; 5 mg/kg): +59%
Prolongation of time of appearance of ventricular tachycardium (TV) ([6]; 5 mg/kg): +53%
Prolongation of time to death ([6]; 5 mg/kg): +29%
Prolongation of time of appearance of ventricular extrasystoles (ESV) ([6]; 10 mg/kg): +35%
Prolongation of time of appearance of ventricular tachycardium (TV) ([6]; 10 mg/kg): +35%
Prolongation of time to death ([6]; 10 mg/kg): +45%
Prolongation of time of appearance of ventricular extrasystoles (ESV) ([6]; 20 mg/kg): +111%
Prolongation of time of appearance of ventricular tachycardium (TV) ([6]; 20 mg/kg): +105%
Prolongation of time to death ([6]; 20 mg/kg): +89%

Source: US4578382A, “4-acylamino-1-azaadamantanes, and compositions for use thereof in medicine” (Etablissements Nativelle S.A., priority 1981, dated 1986)
